Values belong to the molecule of their own block, whether it stands above or below them.
Experiments:
[1] = tested on: native HC (native human haptocorrin); parameters: method as in PMID 17487979; settings: 20°C, cited from earlier work; for k−s dissociation rate constant: pH 7.5, measured over a period of 100 h; for k+s binding rate constant: pH 7.5
[2] = target: T1, rhHC (recombinant human haptocorrin) (Homo sapiens, UniProt P20061); experiment: Binding and dissociation kinetics with fluorescent Cbl-conjugate CBC (stopped-flow competition and chase experiments); settings: pH 7.5
T1 construct: Myc-His-tag (Myc + 6xHis, from pcDNA4/myc-His A) (C, cleaved yes); made in house
T1 sequence (P20061 24-433): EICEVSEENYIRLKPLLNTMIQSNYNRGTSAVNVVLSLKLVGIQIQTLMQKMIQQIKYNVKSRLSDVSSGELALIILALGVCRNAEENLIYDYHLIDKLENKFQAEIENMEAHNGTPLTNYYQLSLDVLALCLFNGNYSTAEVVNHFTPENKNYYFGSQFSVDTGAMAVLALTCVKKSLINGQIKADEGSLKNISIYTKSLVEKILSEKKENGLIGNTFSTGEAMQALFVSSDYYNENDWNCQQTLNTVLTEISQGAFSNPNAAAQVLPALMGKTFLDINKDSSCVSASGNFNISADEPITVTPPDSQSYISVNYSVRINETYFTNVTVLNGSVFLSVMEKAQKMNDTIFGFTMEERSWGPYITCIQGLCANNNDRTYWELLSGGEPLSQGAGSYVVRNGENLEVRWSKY
Method: A more detailed examination of the binding kinetics was performed in a competitive assay, where the fluorescent ligand CBC [32] alone or in the mixture with a test ligand (Cbl or Cbi) reacted with rhHC over time. Attachment of CBC to Cbl-binding proteins causes increase in the quantum yield of the fluorophore, which facilitates monitoring of the protein - CBC interactions, [33]. Presence of a non-fluorescent ligand X decreases the signal, because the binding goes along two competing routes HC•CBC ← HC → HC·X (reactions behave as irreversible processes within 0.2 s). The binding and dissociation rate constants k +s and k−s, as well as the equilibrium dissociation constant KD were calculated for all ligands by computer fitting as explained elsewhere and the results are listed in Table 2. Compared to previously reported values for native HC, all current binding rate constants (k +s) were 2–3 fold lower. This difference could not be explained by possible concentration error (±10%, examined by simulations).
The dissociation kinetics was examined in chase experiments which obeyed (within the examined time scale) one of the below schemes: HC·CBC → HC → HC·X or HC·X → HC → HC·CBC (first step was rate limiting). The dissociation kinetics of the ligands CBC, Cbl and Cbi was measured after formation of the corresponding complexes with rhHC, followed by addition of external CBC (or Cbl in the case of CBC itself) (Figure 5B). The dissociation rate constants were then calculated from linear slopes (Table 2). […] It should be understood, that evaluation of rate constants below 3 · 10^−6 s^−1 within the examined time scale cannot be precise, and that the records were used for comparison of different ligands rather than for precise quantification of k −s.
[…] The binding kinetics was monitored by means of stopped flow method (DX.17 MV stopped-flow spectro-fluorometer, Applied Biophysics, UK) using the fluorescent response from a Cbl-conjugate CBC [32], [33], excitation 525 nm, emission >550 nm, slit 1.5 mm, voltage 390, bandpass of 18.6 nm, light path of 1 cm. […] The relevant rate constants of association were calculated by computer fitting, as described elsewhere, [33].
The dissociation reactions were monitored on fluorometer Varian Eclipse (Varian, Australia) using the fluorescent response of CBC, excitation 525 nm (slit 5 nm), emission 550 nm (slit 5 nm), photomultiplier 600 V. In one setup the pre-formed rhHC·CBC complex (1 µM, 2 min) was mixed with free Cbl (1 µM), and decrease in fluorescence was registered due to rhHC·CBC ↔ Cbl exchange. Dissociation of the non-fluorescent ligands (Cbl or Cbi) was measured in similar chase experiments. […] The endogenous ligand dissociated from the protein (rate limiting step), whereupon CBC immediately bound to rhHC and increased fluorescence.

IF (intrinsic factor) = IF (intrinsic factor) (Homo sapiens, UniProt P27352); experiment: Concurrent binding kinetics test with CBC and Cbl; settings: data not shown
IF (intrinsic factor), sequence (P27352 19-417, species assumed): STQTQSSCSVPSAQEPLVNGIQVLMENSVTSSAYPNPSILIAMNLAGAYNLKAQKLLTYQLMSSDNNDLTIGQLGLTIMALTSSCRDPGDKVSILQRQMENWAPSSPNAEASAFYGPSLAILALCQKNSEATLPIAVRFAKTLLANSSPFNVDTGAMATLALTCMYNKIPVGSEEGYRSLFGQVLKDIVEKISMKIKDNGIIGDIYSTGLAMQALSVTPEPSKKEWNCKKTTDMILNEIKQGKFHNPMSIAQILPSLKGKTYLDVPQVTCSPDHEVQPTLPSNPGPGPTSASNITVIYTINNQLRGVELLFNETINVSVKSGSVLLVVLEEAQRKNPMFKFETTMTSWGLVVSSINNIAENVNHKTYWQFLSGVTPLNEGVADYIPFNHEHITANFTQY

TC (transcobalamin) = target: T2, TC (transcobalamin) (Homo sapiens, UniProt P20062); experiment: Concurrent binding kinetics test with CBC and Cbl; settings: data not shown
T2 sequence (P20062 19-427): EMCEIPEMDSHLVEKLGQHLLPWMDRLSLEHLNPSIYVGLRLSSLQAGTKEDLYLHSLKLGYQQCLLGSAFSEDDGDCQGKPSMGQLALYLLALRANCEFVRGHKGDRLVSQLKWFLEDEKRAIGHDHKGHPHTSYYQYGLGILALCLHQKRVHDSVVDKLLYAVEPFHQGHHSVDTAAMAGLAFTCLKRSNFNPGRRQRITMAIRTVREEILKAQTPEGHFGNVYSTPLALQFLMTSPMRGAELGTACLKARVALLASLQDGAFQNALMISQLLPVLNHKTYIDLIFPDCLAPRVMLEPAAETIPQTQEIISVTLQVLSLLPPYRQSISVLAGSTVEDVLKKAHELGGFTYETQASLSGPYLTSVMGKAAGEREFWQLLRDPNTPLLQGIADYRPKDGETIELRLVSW

[3] = tested on: HepG2 cells expressing the asialoglycoprotein receptor; experiment: Internalisation of 125I-labelled proteins into HepG2 cells; type: cell-based; settings: 125I-labelled protein
Excerpt: Depending on the source of expression, different isoforms of HC exist in human blood and extracellular fluids. […] We tested whether ^125I-labelled rhHC would be readily taken up by HepG2 cells expressing the asialoglycoprotein receptor involved in HC clearance. […] Only after removal of terminal sialic acid by neuraminidase, rhHC and native HC were internalised. Removal of the terminal sialic acid residues was qualitatively determined by SDS/PAGE (Figure 6A).
The proteins were labelled with ^125I using the Iodogen method (Pierce). Labelled protein was purified on a PD10 column (GE healthcare, Glattbrugg, Switzerland). HEPG2 cells were incubated in twelve-well plates in triplicates with about 1 µg of labelled protein for 1 h at 4°C. The plates were then incubated for 0, 1.5, 3, 6 h at 37°C for internalisation. After these times, the cells were washed twice with PBS/0.1% bovine serum albumin and then incubated for 5 min with ice-cold acid wash buffer (50 mM Glycine-HCl, 100 mM NaCl, pH 2.8) to remove the cell-surface bound radioligand. Subsequently, cells were solubilised by incubation with 1 N NaOH for 5 min. at 37°C. At each time point the radioactivity in the cell medium (released), the acid wash (cell-surface bound) and the solubilised cells (internalised) were determined with a NaI-γ-counter (Cobra II Packard, Canberra Packard GmbH, Frankfurt, Germany).

[4] = Active protein fraction (AP) from absorbance ratio A280/A356 after saturation with aquo-Cbl; type: binding
Excerpt: The spectral features of the complex rhHC•aquo-Cbl were explored further when rhHC was saturated with aquo-Cbl added in steps at concentrations below the total binding capacity of the protein (Figure 3B). This allowed calculation of the molar absorbance coefficients of aquo-Cbl when bound to rhHC (Table 1). These parameters helped to evaluate the active protein fraction (AP) as previously shown for IF [27]. For rhHC the value of AP was found from the ratio of R = A280/A356 according to the equation below and the values of absorbance coefficients from Table 1. [drawing 1]
Prior to AP measurements, rhHC was saturated with an excess of aquo-Cbl, free aquo-Cbl was bound to the specific tetrazole adsorbent, whereupon the spectrum of rhHC·Cbl was recorded and compared to the control sample (buffer + aquo-Cbl + adsorbent). After subtraction of the control spectrum, the absorbance ratio and AP were calculated.
rhHC (10 µM) was saturated with an excess of CNCbl (20 µM) and subjected to dialysis against a 50-fold volume excess of 5 M GdnHCl (30°C, 180 rpm). The solution was changed at days 2 and 3. Incubation was stopped after day 4, whereupon rhHC was renatured by dialysis against 0.2 M Na-phosphate buffer pH 7.5, see also ref. [31].

[5] = rhHC preparation with active protein fraction 0.95
[6] = after removal of terminal sialic acid by neuraminidase
[7] = without neuraminidase treatment, time span of 6 h

Molecule: CC1=C2[N-][C@H]([C@H](CC(N)=O)[C@@]2(C)CCC(=O)NC[C@@H](C)O)[C@]2(C)N=C(C(C)=C3N=C(C=C4N=C1[C@@H](CCC(N)=O)C4(C)C)[C@@H](CCC(N)=O)[C@]3(C)CC(N)=O)[C@@H](CCC(N)=O)[C@]2(C)CC(N)=O.[Co+2] [Cbi, cobinamide]
k−s dissociation rate constant [1]: ≈5 · 10^−7 s^−1
k+s binding rate constant [1]: 7.3e+07 M⁻¹ s⁻¹
k+s binding rate constant [2, 5]: 21 10^6 M^−1s^−1
k+s binding rate constant ([2]; rhHC preparation with active protein fraction 0.99): 33 10^6 M^−1s^−1

k+s binding rate constant (IF (intrinsic factor)): 60–70 · 10^6 M^−1 s^−1
k+s binding rate constant (TC (transcobalamin)): 60–70 · 10^6 M^−1 s^−1
k+s binding rate constant [2, 5]: X/19/X· 10^6 10^6 M^−1s^−1
k−s dissociation rate constant [2, 5]: X/≤3/X· 10^−6 10^−6 s^−1
Molecule: C/C1=C2/[N-][C@H]([C@H](CC(N)=O)[C@@]2(C)CCC(=O)NC[C@@H](C)OP(=O)([O-])O[C@H]2[C@@H](O)[C@@H](n3cnc4cc(C)c(C)cc43)O[C@@H]2CO)[C@]2(C)N=C(/C(C)=C3N=C(/C=C4N=C1[C@@H](CCC(N)=O)C\4(C)C)[C@@H](CCC(N)=O)[C@]\3(C)CC(N)=O)[C@@H](CCC(N)=O)[C@]2(C)CC(N)=O.[Co] [Cbl, cobalamin]
k−s dissociation rate constant [1]: ≈5 · 10^−7 s^−1
k+s binding rate constant [1]: 9e+07 M⁻¹ s⁻¹

Cbl binding capacity ([4]; rhHC): 95–99%
B1: rhHC: recombinant human haptocorrin expressed in HEK293 cells, tag removed, four excessive C-terminal residues (…LVPR) (protein)
chain: EICEVSEENYIRLKPLLNTMIQSNYNRGTSAVNVVLSLKLVGIQIQTLMQKMIQQIKYNVKSRLSDVSSGELALIILALGVCRNAEENLIYDYHLIDKLENKFQAEIENMEAHNGTPLTNYYQLSLDVLALCLFNGNYSTAEVVNHFTPENKNYYFGSQFSVDTGAMAVLALTCVKKSLINGQIKADEGSLKNISIYTKSLVEKILSEKKENGLIGNTFSTGEAMQALFVSSDYYNENDWNCQQTLNTVLTEISQGAFSNPNAAAQVLPALMGKTFLDINKDSSCVSASGNFNISADEPITVTPPDSQSYISVNYSVRINETYFTNVTVLNGSVFLSVMEKAQKMNDTIFGFTMEERSWGPYITCIQGLCANNNDRTYWELLSGGEPLSQGAGSYVVRNGENLEVRWSKYLVPR
modifications: 125I label (Iodogen method); glycosylated, highly sialylated; left off: Myc, C-terminal, cleaved | His6, C-terminal, cleaved
Internalisation into HepG2 cells [3, 6]: internalised
Internalisation into HepG2 cells [3, 7]: not internalised
AP active protein fraction after renaturing ([4]; apo-rhHC after Cbl saturation, GdnHCl dialysis and renaturing, preparation with AP = 0.95 before treatment): 0.95

B2: native HC: native human haptocorrin purified from plasma of a patient with hepatocellular carcinoma (protein)
chain: T1 sequence (P20061 24-433)
modifications: 125I label (Iodogen method); glycosylated
notes: native human haptocorrin purified from plasma of a patient with hepatocellular carcinoma
Internalisation into HepG2 cells [3, 6]: internalised
Internalisation into HepG2 cells [3, 7]: not internalised

— publication PMC3360681, “Comparison of Recombinant Human Haptocorrin Expressed in Human Embryonic Kidney Cells and Native Haptocorrin” (PLoS ONE, 2012)
